“Also recorded” adds a separate entry of the source.
Key:
[1] = test system: INSULIN+ cells in human islet grafts; assay: Human β-cell replication in islets transplanted into NOD-scid mice with PDGF-AA infusion; type: in vivo
Text: Exposure of islets from young human donors to purified PDGF-AA stimulates ERK-dependent signaling pathways culminating in enhanced β-cell proliferation. However, these studies have not yet shown if PDGF-AA activation is sufficient to drive regeneration of functional β-cell mass in vivo. To assess this question, equivalent numbers of size-matched islets from young (ages 1-10 years) and control adult donors (age >20 years) were transplanted into NOD-scid mice. […] PDGF-AA infusion stimulated β-cell expansion in human islet grafts. A 200% increase of INSULIN^+ cell BrdU incorporation in grafts from young human donors (n=3 independent juvenile donors, three week PDGF-AA infusion; FIG. 26B-C). By contrast, we observed no increase of BrdU incorporation by INSULIN^+ cells in adult islet grafts (n=2), as expected based on our prior observation that adult β-cells no longer express Pdgf receptor α or Pdgf receptor β. Promoting the expression of Pdgf receptor on adult islet β-cells, e.g. by promoting Wnt signaling and/or preventing DNA methylatransferase activity, will render these adult islet β-cells sensitive to PGF-AA infusion.

human islet β-cells = assay: In vitro human islet β-cell proliferation (BrdU incorporation); type: cell-based; conditions: PDGF-AA 50 ng/ml, 2 days
Text: For islet studies, human islets were isolated either at Pittsburgh University Medical Center or the University of Alabama, Birmingham. Eight independent human islet preparations from juvenile donors at the age of 8 months, 1.0, 1.5, 2, 3, 4, 5 and 6 years, and three adult islet preparations from donors at the age of 39, 48 and 56 years were used in this study. After isolation, fresh islets were hand-picked and transferred to RPMI-1640 medium supplemented with 0.5% FBS, 0.2% BSA and 2% penicillin/streptomycin for an overnight recovery before experiments. […] To detect in vitro human islet β-cell proliferation stimulated by PDGF-AA, human islets were exposed to 50 μM BrdU for 24 h. Afterwards, human islets were processed in a similar way as in mouse islet studies for immunostaining of insulin, glucagon, PDX1 and BrdU. β-Cell proliferation rate was determined by quantifying percentage of insulin+ cells with BrdU+. More than 50 islets per group were counted for determining cultured human islet β-cell proliferation rate.

[2] = grafts from young human donors, three week PDGF-AA infusion

Substance: PDGF-AA: recombinant human PDGF-AA, a homodimer of PDGF alpha polypeptides
- BrdU incorporation by INSULIN+ cells ([1]; adult human islet grafts, PDGF-AA infusion): no increase
- INSULIN+ cell BrdU incorporation (in words) [1, 2]: Increase
- increase of INSULIN+ cell BrdU incorporation [1, 2]: 200%
- β-cell proliferation (human islet β-cells; adult human islets): did not alter
- β-cell BrdU incorporation compared to vehicle-exposed controls (human islet β-cells; juvenile human islets): sixfold increase
- identity of proliferating BrdU+ cells stimulated by PDGF-AA (human islet β-cells; juvenile human islets, confocal microscopy): predominantly β-cells; also recorded: majority of PDGF-AA stimulated proliferating islet cells were PDX1+cells
